Reference: patent publication US7138361B2, “Herbicidal heterocycles” (E. I. du Pont de Nemours and Company, priority 2000, dated 2006)

Columns and labels:
Assay type in all cases: in vivo
[1] = test system: Sunflower; assay: Test C preemergence; conditions: scale 0 to 100, 0 no effect, 100 complete control
[2] = test system: lambsquarters (Chenopodium album); assay: Test B postemergence; conditions: 13 to 15 days
Summary of the method: (§1)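 Seeds were planted and sprayed preemergence with test chemical in a non-phytotoxic solvent mixture containing surfactant; postemergence plants (2 to 18 cm, 1- to 4-leaf stage) received the same formulation. Greenhouse hold 13 to 15 days, then visual rating versus untreated controls on a 0–100 scale (0 no effect, 100 complete control).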

[3] = test system: corn (Zea mays); assay: Test B postemergence; conditions: 13 to 15 days
Summary of the method: as §1

[4] = test system: crabgrass (Digitaria sanguinalis); assay: Test B postemergence; conditions: 13 to 15 days
Summary of the method: as §1

[5] = test system: barnyardgrass (Echinochloa crus-galli); assay: Test B postemergence; conditions: 13 to 15 days
Summary of the method: as §1

[6] = test system: cocklebur (Xanthium strumarium); assay: Test B postemergence; conditions: 13 to 15 days
Summary of the method: as §1

[7] = test system: Surinam grass (Brachiaria decumbens); assay: Test B postemergence; conditions: 13 to 15 days
Summary of the method: as §1

[8] = test system: giant foxtail (Setaria faberii); assay: Test B postemergence; conditions: 13 to 15 days
Summary of the method: as §1

[9] = test system: wheat (Triticum aestivum); assay: Test B postemergence; conditions: 13 to 15 days
Summary of the method: as §1

[10] = test system: morning glory (Ipomoea hederacea); assay: Test B postemergence; conditions: 13 to 15 days
Summary of the method: as §1

[11] = test system: pigweed (Amaranthus retroflexus); assay: Test B postemergence; conditions: 13 to 15 days
Summary of the method: as §1

[12] = test system: wild oat (Avena fatua); assay: Test B postemergence; conditions: 13 to 15 days
Summary of the method: as §1

[13] = test system: blackgrass (Alopecurus myosuroides); assay: Test B postemergence; conditions: 13 to 15 days
Summary of the method: as §1

[14] = test system: velvetleaf (Abutilon theophrasti); assay: Test B postemergence; conditions: 13 to 15 days
Summary of the method: as §1

[15] = test system: lambsquarters (Chenopodium album); assay: Test B preemergence
Summary of the method: as §1

[16] = test system: corn (Zea mays); assay: Test B preemergence
Summary of the method: as §1

[17] = test system: rice (Oryza saliva); assay: Test B preemergence
Summary of the method: as §1

[18] = test system: crabgrass (Digitaria sanguinalis); assay: Test B preemergence
Summary of the method: as §1

[19] = test system: barnyardgrass (Echinochloa crus-galli); assay: Test B preemergence
Summary of the method: as §1

[20] = test system: cocklebur (Xanthium strumarium); assay: Test B preemergence
Summary of the method: as §1

[21] = test system: Surinam grass (Brachiaria decumbens); assay: Test B preemergence
Summary of the method: as §1

[22] = test system: giant foxtail (Setaria faberii); assay: Test B preemergence
Summary of the method: as §1

[23] = test system: morning glory (Ipomoea hederacea); assay: Test B preemergence
Summary of the method: as §1

[24] = test system: pigweed (Amaranthus retroflexus); assay: Test B preemergence
Summary of the method: as §1

[25] = test system: velvetleaf (Abutilon theophrasti); assay: Test B preemergence
Summary of the method: as §1

[26] = test system: Nightshade; assay: Test C preemergence; conditions: Rate 500 g/ha, visual evaluation after 12 to 14 days
[27] = Rate 125 g/ha, scale 0 (no effect) to 100 (complete control)
[28] = Rate 500 g/ha, scale 0 to 100, 0 is no effect, 100 is complete control
[29] = Preemergence, Rate 500 g/ha, scale 0 to 100, 0 no effect, 100 complete control
[30] = preemergence, Rate 125 g/ha, scale of 0 to 100 where 0 is no effect and 100 is complete control, 13 to 15 days

## CCOC(=O)c1cccc(N2CCC(n3ccc(C(C)(C)C)n3)C2=O)c1 (centres unmarked) [Compound 72]
[1]; Rate 125 g/ha
  Plant response rating, Sunflower: 20
[1]; Rate 250 g/ha
  Plant response rating, Sunflower: 20
[2]; [27]
  Plant response rating, Lambsquarters: 0
[2]; [28]
  Plant response rating, Lambsquarters: 0
[3]; [27]
  Plant response rating, Corn: 0
[3]; [28]
  Plant response rating, Corn: 0
[4]; [27]
  Plant response rating, Crabgrass: 0
[4]; [28]
  Plant response rating, Crabgrass: 30
[5]; [27]
  Plant response rating, Barnyardgrass: 30
[5]; [28]
  Plant response rating, Barnyardgrass: 70
[6]; [27]
  Plant response rating, Cocklebur: 80
[6]; [28]
  Plant response rating, Cocklebur: 90
[7]; [27]
  Plant response rating, Surinam grass: 0
[7]; [28]
  Plant response rating, Surinam grass: 0
[8]; [27]
  Plant response rating, Foxtail, Giant: 0
[8]; [28]
  Plant response rating, Foxtail, Giant: 50
[9]; [27]
  Plant response rating, Wheat: 0
[9]; [28]
  Plant response rating, Wheat: 0
[10]; [27]
  Plant response rating, Morningglory: 20
[10]; [28]
  Plant response rating, Morningglory: 50
[11]; [27]
  Plant response rating, Pigweed: 20
[11]; [28]
  Plant response rating, Pigweed: 60
[12]; [27]
  Plant response rating, Wild Oat: 0
[12]; [28]
  Plant response rating, Wild Oat: 0
[13]; [27]
  Plant response rating, Blackgrass: 0
[13]; [28]
  Plant response rating, Blackgrass: 0
[14]; [27]
  Plant response rating, Velvetleaf: 30
[14]; [28]
  Plant response rating, Velvetleaf: 60
[15]; [29]
  Plant response rating, Lambsquarters: 100
[15]; [30]
  Plant response rating, Lambsquarters: 100
[16]; [29]
  Plant response rating, Corn: 0
[16]; [30]
  Plant response rating, Corn: 0
[17]; [29]
  Plant response rating, Rice: 0
[17]; [30]
  Plant response rating, Rice: 0
[18]; [29]
  Plant response rating, Crabgrass: 100
[18]; [30]
  Plant response rating, Crabgrass: 100
[19]; [29]
  Plant response rating, Barnyardgrass: 100
[19]; [30]
  Plant response rating, Barnyardgrass: 100
[20]; [29]
  Plant response rating, Cocklebur: 60
[20]; [30]
  Plant response rating, Cocklebur: 0
[21]; [29]
  Plant response rating, Surinam grass: 70
[21]; [30]
  Plant response rating, Surinam grass: 0
[22]; [29]
  Plant response rating, Foxtail, Giant: 100
[22]; [30]
  Plant response rating, Foxtail, Giant: 100
[23]; [29]
  Plant response rating, Morningglory: 90
[23]; [30]
  Plant response rating, Morningglory: 0
[24]; [29]
  Plant response rating, Pigweed: 100
[24]; [30]
  Plant response rating, Pigweed: 100
[25]; [29]
  Plant response rating, Velvetleaf: 90
[25]; [30]
  Plant response rating, Velvetleaf: 0
[26]
  Plant response rating (0 to 100), Nightshade: 60

## COc1cccc(N2CCC(n3ccc(C(C)(C)C)n3)C2=O)c1 (centres unmarked) [Compound 87]
[1]; Rate 250 g/ha
  Plant response rating, Sunflower: 20
[2]; [27]
  Plant response rating, Lambsquarters: 0
[2]; [28]
  Plant response rating, Lambsquarters: 50
[3]; [27]
  Plant response rating, Corn: 0
[3]; [28]
  Plant response rating, Corn: 0
[4]; [27]
  Plant response rating, Crabgrass: 0
[4]; [28]
  Plant response rating, Crabgrass: 0
[5]; [27]
  Plant response rating, Barnyardgrass: 0
[5]; [28]
  Plant response rating, Barnyardgrass: 30
[6]; [27]
  Plant response rating, Cocklebur: 0
[6]; [28]
  Plant response rating, Cocklebur: 0
[7]; [27]
  Plant response rating, Surinam grass: 0
[7]; [28]
  Plant response rating, Surinam grass: 0
[8]; [27]
  Plant response rating, Foxtail, Giant: 0
[8]; [28]
  Plant response rating, Foxtail, Giant: 0
[9]; [27]
  Plant response rating, Wheat: 0
[9]; [28]
  Plant response rating, Wheat: 0
[10]; [27]
  Plant response rating, Morningglory: 0
[10]; [28]
  Plant response rating, Morningglory: 0
[11]; [27]
  Plant response rating, Pigweed: 0
[11]; [28]
  Plant response rating, Pigweed: 40
[12]; [27]
  Plant response rating, Wild Oat: 0
[12]; [28]
  Plant response rating, Wild Oat: 0
[13]; [27]
  Plant response rating, Blackgrass: 0
[13]; [28]
  Plant response rating, Blackgrass: 0
[14]; [27]
  Plant response rating, Velvetleaf: 0
[14]; [28]
  Plant response rating, Velvetleaf: 0
[15]; [29]
  Plant response rating, Lambsquarters: 100
[15]; [30]
  Plant response rating, Lambsquarters: 100
[16]; [29]
  Plant response rating, Corn: 60
[16]; [30]
  Plant response rating, Corn: 30
[17]; [29]
  Plant response rating, Rice: 100
[17]; [30]
  Plant response rating, Rice: 70
[18]; [29]
  Plant response rating, Crabgrass: 100
[18]; [30]
  Plant response rating, Crabgrass: 100
[19]; [29]
  Plant response rating, Barnyardgrass: 100
[19]; [30]
  Plant response rating, Barnyardgrass: 100
[20]; [29]
  Plant response rating, Cocklebur: 0
[20]; [30]
  Plant response rating, Cocklebur: 0
[21]; [29]
  Plant response rating, Surinam grass: 100
[21]; [30]
  Plant response rating, Surinam grass: 80
[22]; [29]
  Plant response rating, Foxtail, Giant: 100
[22]; [30]
  Plant response rating, Foxtail, Giant: 100
[23]; [29]
  Plant response rating, Morningglory: 0
[23]; [30]
  Plant response rating, Morningglory: 0
[24]; [29]
  Plant response rating, Pigweed: 100
[24]; [30]
  Plant response rating, Pigweed: 100
[25]; [29]
  Plant response rating, Velvetleaf: 0
[25]; [30]
  Plant response rating, Velvetleaf: 0
[26]
  Plant response rating (0 to 100), Nightshade: 90
